Data on nine molecules can be found in paper PMC12121777 (PLOS One, 2025).

pIC50: −log10 of the molar value. In brackets after ≈: the same amount, converted by molar mass. Read-outs that look alike come from different tables or passages of the source.

For one test, the system named is Mtb 331/88 (i.e., H37Rv). The experiment in a line: MIC, micro method in Šula's semisynthetic medium, drug-susceptible Mtb. To be noted: for MIC: Mycobacterium tuberculosis, H37RV. It is filed as cell-based, Mycobacterium tuberculosis.
The subject of test [1] is Mycobacterium kansasii 6509/96. The experiment in a line: MIC, micro method in Šula's semisynthetic medium, M. kansasii clinical isolate. It is filed as cell-based. To be noted: read-out: MIC M. kansasii 6509/96.
For test [2], the system named is Mycobacterium avium 330/88. The experiment in a line: MIC, micro method in Šula's semisynthetic medium, M. avium. The test is classed as cell-based.
The test system of the next test is HepG2 cells. In words: Cytotoxicity on HepG2 cell line (CellTiter 96). It is filed as cell-based, human. To be noted: for pIC50: read-out: IC50 HepG2.
The mark [3] stands for this setting: 330/88, 336 h, read-out: MIC M. avium 330/88.
[4] abbreviates: 330/88, 504 h, read-out: MIC M. avium 330/88.

For `CCCCCCCCCCCCCCNC(=O)NNC(=O)c1cc([N+](=O)[O-])cc([N+](=O)[O-])c1` [Compound 4n, 2-(3,5-Dinitrobenzoyl)-N-tetradecylhydrazine-1-carboxamide], the MIC is 4 µM (≈ 1.86 µg/mL) in the test on Mtb 331/88 (i.e., H37Rv) (336 h, 14 days); 8 µM (≈ 3.72 µg/mL) against Mtb 331/88 (i.e., H37Rv) (504 h, 21 days); 4 µM (≈ 1.86 µg/mL) in test [1] (6509/96, 168 h); 8 µM (≈ 3.72 µg/mL) in test [1] (6509/96, 336 h); 8 µM (≈ 3.72 µg/mL) in test [1] (6509/96, 504 h); more than 500 µM in test [2] (setting [3]). For the same molecule, in test [2] (setting [4]), the MIC is more than 500 µM. Moreover, the pIC50 with HepG2 cells (Homo sapiens, HepG2, 24 h) was 3.68.
Consider `CCCCCCCCCCCCCCCNC(=O)NNC(=O)c1cc([N+](=O)[O-])cc([N+](=O)[O-])c1` [Compound 4o, 2-(3,5-Dinitrobenzoyl)-N-pentadecylhydrazine-1-carboxamide], for which the MIC in the test on Mtb 331/88 (i.e., H37Rv) (336 h, 14 days) is 8 µM (≈ 3.84 µg/mL); in the test on Mtb 331/88 (i.e., H37Rv) (504 h, 21 days), 16 µM (≈ 7.67 µg/mL); in test [1] (6509/96, 168 h) it was 8 µM (≈ 3.84 µg/mL); in test [1] (6509/96, 336 h), 8 µM (≈ 3.84 µg/mL); in test [1] (6509/96, 504 h) it was 16 µM (≈ 7.67 µg/mL); in test [2] (setting [3]) it was more than 500 µM. Further, in test [2] (setting [4]), the MIC was more than 500 µM. Moreover, the pIC50 is more than 4.00 in the test on HepG2 cells (Homo sapiens, HepG2, 24 h) and 4.08 in the test on HepG2 cells.
As for `CCCCNc1nnc(-c2cc([N+](=O)[O-])cc([N+](=O)[O-])c2)o1` [Compound 5d, N-Butyl-5-(3,5-dinitrophenyl)-1,3,4-oxadiazol-2-amine], the MIC in the test with Mtb 331/88 (i.e., H37Rv) (336 h, 14 days) came out at 0.5 µM (≈ 0.154 µg/mL); against Mtb 331/88 (i.e., H37Rv) (504 h, 21 days) it was 0.5 µM (≈ 0.154 µg/mL); in test [1] (6509/96, 168 h), 1 µM (≈ 0.307 µg/mL); in test [1] (6509/96, 336 h) it was 2 µM (≈ 0.615 µg/mL); in test [1] (6509/96, 504 h), 2 µM (≈ 0.615 µg/mL); in test [2] (setting [3]), 64 µM (≈ 19.7 µg/mL). Further, in test [2] (setting [4]), the MIC worked out at 125 µM (≈ 38.4 µg/mL). In the test on HepG2 cells (Homo sapiens, HepG2, 24 h), the pIC50 is less than 3.60.
Consider `CCCCCNc1nnc(-c2cc([N+](=O)[O-])cc([N+](=O)[O-])c2)o1` [Compound 5e, 5-(3,5-Dinitrophenyl)-N-pentyl-1,3,4-oxadiazol-2-amine], for which the MIC in the test on Mtb 331/88 (i.e., H37Rv) (336 h, 14 days) is 0.25 µM (≈ 0.0803 µg/mL); against Mtb 331/88 (i.e., H37Rv) (504 h, 21 days), 0.25 µM (≈ 0.0803 µg/mL); in test [1] (6509/96, 168 h), 0.25 µM (≈ 0.0803 µg/mL); in test [1] (6509/96, 336 h), 0.5 µM (≈ 0.161 µg/mL); in test [1] (6509/96, 504 h), 0.5 µM (≈ 0.161 µg/mL); in test [2] (setting [3]), more than 500 µM. Further, the MIC in test [2] (setting [4]) is more than 500 µM. The pIC50 in the test on HepG2 cells (Homo sapiens, HepG2, 24 h) was less than 3.60.
For `CCCCCCNc1nnc(-c2cc([N+](=O)[O-])cc([N+](=O)[O-])c2)o1` [Compound 5f, 5-(3,5-Dinitrophenyl)-N-hexyl-1,3,4-oxadiazol-2-amine], the MIC against Mtb 331/88 (i.e., H37Rv) (336 h, 14 days) was not above 0.03 µM; with Mtb 331/88 (i.e., H37Rv) (504 h, 21 days) it was not above 0.03 µM; in test [1] (6509/96, 168 h), 0.25 µM (≈ 0.0838 µg/mL); in test [1] (6509/96, 336 h) it was 0.5 µM (≈ 0.168 µg/mL); in test [1] (6509/96, 504 h) it was 0.5 µM (≈ 0.168 µg/mL); in test [2] (setting [3]) it was not above 1 µM. In addition, the MIC was not above 1 µM in test [2] (setting [4]) and 1 µM (≈ 0.335 µg/mL) in test [2] (330/88, read-out: MIC M. avium). The “fold more potent than precursor 4 against Mtb” value in the test with Mtb 331/88 (i.e., H37Rv) (oxadiazole 5 vs hydrazinecarboxamide 4 counterpart) is not below 33.3 fold. In addition, in the test with HepG2 cells (Homo sapiens, HepG2, 24 h), the negative-log IC50 (pIC50) is less than 4.00. For the same molecule, the “selectivity (SI) for M. avium” value with HepG2 cells (ratio of IC50 (HepG2) to MIC) is recorded as more than 100.
As to `CCCCCCCCNc1nnc(-c2cc([N+](=O)[O-])cc([N+](=O)[O-])c2)o1` [Compound 5h, 5-(3,5-Dinitrophenyl)-N-octyl-1,3,4-oxadiazol-2-amine], the MIC is 0.06 µM (≈ 0.0218 µg/mL) with Mtb 331/88 (i.e., H37Rv) (336 h, 14 days); 0.06 µM (≈ 0.0218 µg/mL) in the test with Mtb 331/88 (i.e., H37Rv) (504 h, 21 days); not above 0.03 µM in test [1] (6509/96, 168 h); 0.06 µM (≈ 0.0218 µg/mL) in test [1] (6509/96, 336 h); 0.06 µM (≈ 0.0218 µg/mL) in test [1] (6509/96, 504 h); 8 µM (≈ 2.91 µg/mL) in test [2] (setting [3]). Besides, the MIC in test [2] (setting [4]) turned out to be 16 µM (≈ 5.81 µg/mL). Moreover, in the test with HepG2 cells (Homo sapiens, HepG2, 24 h), the pIC50 is less than 4.00.
For the molecule `CCCCCCCCCNc1nnc(-c2cc([N+](=O)[O-])cc([N+](=O)[O-])c2)o1` [Compound 5i, 5-(3,5-Dinitrophenyl)-N-nonyl-1,3,4-oxadiazol-2-amine], the MIC is 0.06 µM (≈ 0.0226 µg/mL) against Mtb 331/88 (i.e., H37Rv) (336 h, 14 days); 0.06 µM (≈ 0.0226 µg/mL) with Mtb 331/88 (i.e., H37Rv) (504 h, 21 days); not above 0.03 µM in test [1] (6509/96, 168 h); 0.06 µM (≈ 0.0226 µg/mL) in test [1] (6509/96, 336 h); 0.06 µM (≈ 0.0226 µg/mL) in test [1] (6509/96, 504 h); 8 µM (≈ 3.02 µg/mL) in test [2] (setting [3]). For the same molecule, the MIC in test [2] (setting [4]) stood at 16 µM (≈ 6.04 µg/mL). For the same molecule, the pIC50 with HepG2 cells (Homo sapiens, HepG2, 24 h) was less than 4.00.
As to `CCCCCCCCCCNc1nnc(-c2cc([N+](=O)[O-])cc([N+](=O)[O-])c2)o1` [Compound 5j, N-Decyl-5-(3,5-dinitrophenyl)-1,3,4-oxadiazol-2-amine], the MIC in the test with Mtb 331/88 (i.e., H37Rv) (336 h, 14 days) is 0.5 µM (≈ 0.196 µg/mL); against Mtb 331/88 (i.e., H37Rv) (504 h, 21 days) it was 1 µM (≈ 0.391 µg/mL); in test [1] (6509/96, 168 h), 1 µM (≈ 0.391 µg/mL); in test [1] (6509/96, 336 h), 1 µM (≈ 0.391 µg/mL); in test [1] (6509/96, 504 h) it was 1 µM (≈ 0.391 µg/mL); in test [2] (setting [3]), 4 µM (≈ 1.57 µg/mL). In addition, in test [2] (setting [4]), the MIC is 8 µM (≈ 3.13 µg/mL). Moreover, the pIC50 in the test with HepG2 cells (Homo sapiens, HepG2, 24 h) is less than 4.00.
In the case of `CCCCCCCCCCCCSc1nnc(-c2cc([N+](=O)[O-])cc([N+](=O)[O-])c2)o1` [Compound 10, 2-(3,5-Dinitrophenyl)-5-(dodecylthio)-1,3,4-oxadiazole], the MIC in the test with Mtb 331/88 (i.e., H37Rv) (336 h, 14 days) was determined as 8 µM (≈ 3.49 µg/mL); in the test on Mtb 331/88 (i.e., H37Rv) (504 h, 21 days) it was 8 µM (≈ 3.49 µg/mL); in test [1] (6509/96, 168 h), 2 µM (≈ 0.873 µg/mL); in test [1] (6509/96, 336 h) it was 4 µM (≈ 1.75 µg/mL); in test [1] (6509/96, 504 h), 8 µM (≈ 3.49 µg/mL); in test [2] (setting [3]) it was 500 µM (≈ 218 µg/mL). In addition, the MIC in test [2] (setting [4]) came out at 500 µM (≈ 218 µg/mL).
